According to PMC13053910, “Covalent Protein Inhibitors via Tyrosine and Tryptophan Conjugation with Cyclic Imine Mannich Electrophiles” (Angewandte Chemie (International Ed. in English), 2026):
Non-standard residues stand in square brackets, D forms with d. Residues, ends and D or L forms follow the SMILES beside them. *: point of attachment. Benzoyl(4-OPh) = O=C(c1ccc(Oc2ccccc2)cc1)*; Lys(Et2) = CCN(CC)CCCC[C@H](N)C(=O)O; Gly(cPent) = N[C@H](C(=O)O)C1CCCC1

Columns and labels:
[1] = biological target: CBX8 ChD; parameters: method as in PMID 31755685, PMID 29309209; conditions: prior work ref 47, 48; cited from earlier work
[2] = system: HOXA9 gene expression in THP1 cells; test: qRT-PCR analysis of HOXA9 gene expression in THP1 cells; type: cell-based, Human; conditions: 48 h
Description: Figure 7 Cellular activity of covalent, cyclic imine inhibitors to CBX8. a) qRT‐PCR analysis of HOXA9 gene expression in THP1 cells after 48 h of compound treatment at the indicated dose. N = 3. Error bars represent SD. Statistical significance was calculated using Student's t‐test. ** = p < 0.01, **** = p < 0.0001, b) qRT‐PCR analysis of HOXA9 gene expression in THP1 cells treated with increasing doses of compound for 48 h. N = 3. Error bars represent SD.
Figure S24. Cellular activity of covalent, cyclic imine inhibitors to CBX8. qRT-PCR analysis of HOXA9 gene expression in THP1 cells after 48 h of compound treatment at the indicated dose. N = 3. Error bars represent s.d. Statistical significance determined by Student’s T test. * = p <0.05, ** = p < 0.01, *** = p < 0.001, **** = p < 0.0001.
2.4 Cell Culture Cell line, Media and Culture Conditions HEK293T cells were cultured in Dubecco’s Modified Essential Media (DMEM), 10% fetal bovine serum (FBS, JR Scientific), 1% glutagro (Corning), 1% penicillin/streptomycin (Corning), 1% sodium pyruvate (Corning). Human THP1 cells were cultured in RPMI (Gibco), 10% FBS (J R Scientific), 1% Sodium pyruvate (Invitrogen), 1% Pen/Strep (Invitrogen), 1% Glutamax (Thermo Scientific), 0.1% 2-mercaptoethanol.
Cells were harvested after 48 h for RNA extraction. […] SYBR Green Mastermix (Thermo Scientific) was used for quantitative PCR. […]

[3] = Reaction of cyclic imine Mannich or sulfur fluoride electrophiles with Ac-Tyr-NHMe (HPLC, LC/MS); type: physicochemical; conditions: PBS pH 7, 37 °C
Description: To identify an appropriate warhead, we synthesized or purchased a collection of cyclic imines and incubated them with N‐acetyl‐L‐tyrosine methylamide (Ac‐Tyr‐NHMe) in PBS pH 7 at 37 °C (Table 1). The reactivity was quantified by UV integration on HPLC with LC/MS confirmation of product identity (Figure S1). […] The hydrolysis kinetics of imine 2 were characterized at pD 6 and 7.5 by NMR (Figure S3). […] The Mannich reaction mechanism involves a charged iminium intermediate, and the reaction is frequently catalyzed by Bronsted acids.^[ [36], [37] ^]
Figure 2 Second‐order rate constants for select cyclic imines and a sulfonyl fluoride with aromatic nucleophiles. Reactions were conducted under pseudo‐first‐order conditions with an excess of one reactant, as indicated. The reduction in the concentration of the limiting reactant was measured at various time points by HPLC analysis.
Figure S2: Second order rate constant determination. Reaction of (A) imine 1 (5 mM) with N-Ac-Tyr-NHMe (100 mM) at 37 °C or (B) at R.T. (C) imine 2 (5 mM) with N-Ac-Tyr-NHMe (100 mM) at 37 °C (D) imine 1 (5 mM) with indole-3-butyrate (100 mM) at 37 °C (E) imine 1 (10 mM) with 1 mM 1H-pyrrole-1-propionate (F) iminium 5 (5 mM) with N-Ac-Tyr-NHMe (100 mM) at 37 °C (G) imine 4 (5 mM) with N-Ac-Tyr-NHMe (100 mM) at 37 °C. (H) imine 11 (5 mM) with N-Ac-Tyr-NHMe (100 mM) at 37 °C. (I) imine 13 (5 mM) with N-Ac-Tyr-NHMe (100 mM) at 37 °C.
5.1 General procedure for determination of second order rate constants N-acetyl-l-tyrosine methyl amide (Ac-Tyr-NHMe) (100 mM) was incubated with 5 mM imine 1 in PBS (pH 7) at 37 °C or R.T..

[4] = pH 7 and 37 °C ref 39; cited from earlier work

## CC[C@H](C)[C@H](NC(=O)[C@@H](NC(=O)c1ccc(Oc2ccccc2)cc1)C1CCCC1)C(=O)N[C@@H](CCCCN(CC)CC)C(=O)N[C@@H](CO)C(N)=O [SW2_110A, reference compound] ({Benzoyl(4-OPh)}-[Gly(cPent)]I[Lys(Et2)]S-NH2)
[1]
  Kd: 0.8 µM
[2]
  IC50: > 22 µM

## NCCc1ccc(S(=O)(=O)F)cc1 [compound 13, 4‐(2‐aminoethyl)‐benzenesulfonyl fluoride, reference compound]
[3]; electrophile 5 mM, N‐acetyl‐l‐tyrosine methyl amide 100 mM
  reactivity (t1/2): 0.28 ± 0.02 h
[3]; pseudo‐first‐order conditions
  second‐order rate constant k2 with N‐Ac‐Tyr‐NHMe: 0.0069 M⁻¹ s⁻¹
[4]
  hydrolysis half‐life: 6 h
